Reference: ChEMBL document CHEMBL1275577, “Study of the in vitro activities of rifaximin and comparator agents against 536 anaerobic intestinal bacteria from the perspective of potential utility in pathology involving bowel flora” (Antimicrob Agents Chemother, 2009)
In brackets after ≈: the same amount, converted by molar mass.

What was measured:
Holdemania filiformis = assay: Antimicrobial activity against Holdemania filiformis by Wadsworth agar dilution method; assay type: functional
Propionibacterium avidum = assay: Antimicrobial activity against Propionibacterium avidum by Wadsworth agar dilution method; assay type: functional; conditions: Cutibacterium avidum
Clostridium cadaveris = assay: Antimicrobial activity against Clostridium cadaveris by Wadsworth agar dilution method; assay type: functional
Anaerococcus tetradius = assay: Antimicrobial activity against Anaerococcus tetradius by Wadsworth agar dilution method; assay type: functional
Eubacterium rectale = assay: Antimicrobial activity against Eubacterium rectale by Wadsworth agar dilution method; assay type: functional; conditions: Agathobacter rectalis
Prevotella bivia = assay: Antimicrobial activity against Prevotella bivia by Wadsworth agar dilution method; assay type: functional
[1] = Antimicrobial activity against Bifidobacterium infantis by Wadsworth agar dilution method; assay type: functional, Bifidobacterium longum subsp. infantis; conditions: Bifidobacterium longum
Hoylesella loescheii = assay: Antimicrobial activity against Prevotella loescheii by Wadsworth agar dilution method; assay type: functional
Fusobacterium mortiferum = assay: Antimicrobial activity against Clostridium rectum by Wadsworth agar dilution method; assay type: functional
Bacteroides stercoris = assay: Antimicrobial activity against Bacteroides stercoris by Wadsworth agar dilution method; assay type: functional
Eubacterium saburreum = assay: Antimicrobial activity against Eubacterium saburreum by Wadsworth agar dilution method; assay type: functional; conditions: Lachnoanaerobaculum saburreum
Ruminococcus obeum = assay: Antimicrobial activity against Ruminococcus obeum by Wadsworth agar dilution method; assay type: functional; conditions: Blautia obeum
Clostridium spiroforme = assay: Antimicrobial activity against Clostridium spiroforme by Wadsworth agar dilution method; assay type: functional; conditions: Thomasclavelia spiroformis
Cutibacterium acnes = assay: Antimicrobial activity against Propionibacterium acnes by Wadsworth agar dilution method; assay type: functional
Eubacterium cylindroides = assay: Antimicrobial activity against Eubacterium cylindroides by Wadsworth agar dilution method; assay type: functional; conditions: Faecalitalea cylindroides
[2] = test system: Pseudoramibacter alactolyticus; assay: Antimicrobial activity against Eubacterium alactolyticum by Wadsworth agar dilution method; assay type: functional
[3] = test system: Bifidobacterium pseudolongum; assay: Antimicrobial activity against Bifidobacterium pseudolongum by Wadsworth agar dilution method; assay type: functional
Parabacteroides merdae = assay: Antimicrobial activity against Parabacteroides merdae by Wadsworth agar dilution method; assay type: functional
[4] = test system: Bacteroides thetaiotaomicron; assay: Antimicrobial activity against Bacteroides thetaiotaomicron by Wadsworth agar dilution method; assay type: functional
Clostridium septicum = assay: Antimicrobial activity against Clostridium septicum by Wadsworth agar dilution method; assay type: functional
[5] = test system: Lactiplantibacillus plantarum; assay: Antimicrobial activity against Lactobacillus plantarum by Wadsworth agar dilution method; assay type: functional
[6] = test system: Prevotella melaninogenica; assay: Antimicrobial activity against Prevotella melaninogenica by Wadsworth agar dilution method; assay type: functional
[7] = test system: Bifidobacterium adolescentis; assay: Antimicrobial activity against Bifidobacterium adolescentis by Wadsworth agar dilution method; assay type: functional
Bifidobacterium longum = assay: Antimicrobial activity against Bifidobacterium longum by Wadsworth agar dilution method; assay type: functional
Clostridium cocleatum = assay: Antimicrobial activity against Clostridium cocleatum by Wadsworth agar dilution method; assay type: functional; conditions: Thomasclavelia cocleata
Lactobacillus jensenii = assay: Antimicrobial activity against Lactobacillus jensenii by Wadsworth agar dilution method; assay type: functional
Clostridium tertium = assay: Antimicrobial activity against Clostridium tertium by Wadsworth agar dilution method; assay type: functional
Porphyromonas somerae = assay: Antimicrobial activity against Porphyromonas somerae by Wadsworth agar dilution method; assay type: functional
[8] = test system: Limosilactobacillus fermentum; assay: Antimicrobial activity against Lactobacillus fermentum by Wadsworth agar dilution method; assay type: functional
Bacteroides ovatus = assay: Antimicrobial activity against Bacteroides ovatus by Wadsworth agar dilution method; assay type: functional
Eggerthella lenta = assay: Antimicrobial activity against Eggerthella lenta by Wadsworth agar dilution method; assay type: functional
Eubacterium biforme = assay: Antimicrobial activity against Eubacterium biforme by Wadsworth agar dilution method; assay type: functional; conditions: Holdemanella biformis
Tissierella praeacuta = assay: Antimicrobial activity against Clostridium hastiforme by Wadsworth agar dilution method; assay type: functional
[9] = test system: Paraclostridium bifermentans; assay: Antimicrobial activity against Clostridium bifermentans by Wadsworth agar dilution method; assay type: functional
Ruminococcus torques = assay: Antimicrobial activity against Ruminococcus torques by Wadsworth agar dilution method; assay type: functional; conditions: Mediterraneibacter torques
[10] = test system: Ruminococcus flavefaciens; assay: Antimicrobial activity against Ruminococcus flavefaciens by Wadsworth agar dilution method; assay type: functional
Clostridium beijerinckii = assay: Antimicrobial activity against Clostridium beijerinckii by Wadsworth agar dilution method; assay type: functional
Actinomyces viscosus = assay: Antimicrobial activity against Actinomyces viscosus by Wadsworth agar dilution method; assay type: functional
[11] = test system: Paeniclostridium sordellii; assay: Antimicrobial activity against Clostridium sordellii by Wadsworth agar dilution method; assay type: functional; conditions: Paraclostridium sordellii
Atopobium minutum = assay: Antimicrobial activity against Atopobium minutum by Wadsworth agar dilution method; assay type: functional
[12] = test system: Catenibacterium mitsuokai; assay: Antimicrobial activity against Catenibacterium mitsuokai by Wadsworth agar dilution method; assay type: functional
Clostridium leptum = assay: Antimicrobial activity against Clostridium leptum by Wadsworth agar dilution method; assay type: functional
[13] = test system: Peptostreptococcus anaerobius; assay: Antimicrobial activity against Peptostreptococcus anaerobius by Wadsworth agar dilution method; assay type: functional
Clostridium sp. = assay: Antimicrobial activity against Clostridium sp. by Wadsworth agar dilution method; assay type: functional
Bacteroides nordii = assay: Antimicrobial activity against Bacteroides nordii by Wadsworth agar dilution method; assay type: functional
Thomasclavelia ramosa = assay: Antimicrobial activity against Clostridium ramosum by Wadsworth agar dilution method; assay type: functional
[14] = test system: Enterocloster clostridioformis; assay: Antimicrobial activity against Clostridium clostridioforme by Wadsworth agar dilution method; assay type: functional
Desulfovibrio vulgaris = assay: Antimicrobial activity against Desulfovibrio vulgaris by Wadsworth agar dilution method; assay type: functional; conditions: Nitratidesulfovibrio vulgaris

## NC[C@@H]1O[C@H](O[C@H]2[C@@H](O)[C@H](O[C@@H]3[C@@H](O)[C@H](N)C[C@H](N)[C@H]3O[C@H]3O[C@H](CN)[C@@H](O)[C@H](O)[C@H]3N)O[C@@H]2CO)[C@H](N)[C@@H](O)[C@@H]1O [FRAMYCETIN]
Holdemania filiformis
  MIC50: 128 µg/mL (≈ 208 µM)
  MIC90: 1020 µg/mL (≈ 1670 µM)
Propionibacterium avidum
  MIC50: 128 µg/mL (≈ 208 µM)
  MIC90: 1020 µg/mL (≈ 1670 µM)
Clostridium cadaveris
  MIC50: 256 µg/mL (≈ 416 µM)
  MIC90: 1020 µg/mL (≈ 1670 µM)
Anaerococcus tetradius
  MIC50: 128 µg/mL (≈ 208 µM)
  MIC90: 512 µg/mL (≈ 833 µM)
Eubacterium rectale
  MIC50: 128 µg/mL (≈ 208 µM)
  MIC90: 1020 µg/mL (≈ 1670 µM)
Prevotella bivia
  MIC50: 512 µg/mL (≈ 833 µM)
  MIC90: 1020 µg/mL (≈ 1670 µM)
[1]
  MIC50: 128 µg/mL (≈ 208 µM)
  MIC90: 1020 µg/mL (≈ 1670 µM)
Hoylesella loescheii
  MIC50: 512 µg/mL (≈ 833 µM)
  MIC90: 1020 µg/mL (≈ 1670 µM)
Fusobacterium mortiferum
  MIC50: 256 µg/mL (≈ 416 µM)
  MIC90: 1020 µg/mL (≈ 1670 µM)
Bacteroides stercoris
  MIC50: > 1020 µg/mL
  MIC90: > 1020 µg/mL
Eubacterium saburreum
  MIC50: 128 µg/mL (≈ 208 µM)
  MIC90: 1020 µg/mL (≈ 1670 µM)
Ruminococcus obeum
  MIC50: 128 µg/mL (≈ 208 µM)
  MIC90: 512 µg/mL (≈ 833 µM)
Clostridium spiroforme
  MIC50: 256 µg/mL (≈ 416 µM)
  MIC90: 1020 µg/mL (≈ 1670 µM)
Cutibacterium acnes
  MIC50: 128 µg/mL (≈ 208 µM)
  MIC90: 1020 µg/mL (≈ 1670 µM)
Eubacterium cylindroides
  MIC50: 128 µg/mL (≈ 208 µM)
  MIC90: 1020 µg/mL (≈ 1670 µM)
[2]
  MIC50: 128 µg/mL (≈ 208 µM)
  MIC90: 1020 µg/mL (≈ 1670 µM)
[3]
  MIC50: 128 µg/mL (≈ 208 µM)
  MIC90: 1020 µg/mL (≈ 1670 µM)
Parabacteroides merdae
  MIC50: 1020 µg/mL (≈ 1670 µM)
  MIC90: > 1020 µg/mL
[4]
  MIC50: > 1020 µg/mL
  MIC90: > 1020 µg/mL
Clostridium septicum
  MIC50: 256 µg/mL (≈ 416 µM)
  MIC90: 1020 µg/mL (≈ 1670 µM)
[5]
  MIC50: 128 µg/mL (≈ 208 µM)
  MIC90: 1020 µg/mL (≈ 1670 µM)
[6]
  MIC50: 512 µg/mL (≈ 833 µM)
  MIC90: 1020 µg/mL (≈ 1670 µM)
[7]
  MIC50: 128 µg/mL (≈ 208 µM)
  MIC90: 1020 µg/mL (≈ 1670 µM)
Bifidobacterium longum
  MIC50: 128 µg/mL (≈ 208 µM)
  MIC90: 1020 µg/mL (≈ 1670 µM)
Clostridium cocleatum
  MIC50: 256 µg/mL (≈ 416 µM)
  MIC90: 1020 µg/mL (≈ 1670 µM)
Lactobacillus jensenii
  MIC50: 128 µg/mL (≈ 208 µM)
  MIC90: 1020 µg/mL (≈ 1670 µM)
Clostridium tertium
  MIC50: 256 µg/mL (≈ 416 µM)
  MIC90: 1020 µg/mL (≈ 1670 µM)
Porphyromonas somerae
  MIC50: 512 µg/mL (≈ 833 µM)
  MIC90: > 1020 µg/mL
[8]
  MIC50: 128 µg/mL (≈ 208 µM)
  MIC90: 1020 µg/mL (≈ 1670 µM)
Bacteroides ovatus
  MIC50: > 1020 µg/mL
  MIC90: > 1020 µg/mL
Eggerthella lenta
  MIC50: 128 µg/mL (≈ 208 µM)
  MIC90: 1020 µg/mL (≈ 1670 µM)
Eubacterium biforme
  MIC50: 128 µg/mL (≈ 208 µM)
  MIC90: 1020 µg/mL (≈ 1670 µM)
Tissierella praeacuta
  MIC50: 256 µg/mL (≈ 416 µM)
  MIC90: 1020 µg/mL (≈ 1670 µM)
[9]
  MIC50: 256 µg/mL (≈ 416 µM)
  MIC90: 1020 µg/mL (≈ 1670 µM)
Ruminococcus torques
  MIC50: 128 µg/mL (≈ 208 µM)
  MIC90: 512 µg/mL (≈ 833 µM)
[10]
  MIC50: 128 µg/mL (≈ 208 µM)
  MIC90: 512 µg/mL (≈ 833 µM)
Clostridium beijerinckii
  MIC50: 256 µg/mL (≈ 416 µM)
  MIC90: 1020 µg/mL (≈ 1670 µM)
Actinomyces viscosus
  MIC50: 128 µg/mL (≈ 208 µM)
  MIC90: 1020 µg/mL (≈ 1670 µM)
[11]
  MIC50: 256 µg/mL (≈ 416 µM)
  MIC90: 1020 µg/mL (≈ 1670 µM)
Atopobium minutum
  MIC50: 128 µg/mL (≈ 208 µM)
  MIC90: 1020 µg/mL (≈ 1670 µM)
[12]
  MIC50: 128 µg/mL (≈ 208 µM)
  MIC90: 1020 µg/mL (≈ 1670 µM)
Clostridium leptum
  MIC50: 256 µg/mL (≈ 416 µM)
  MIC90: 1020 µg/mL (≈ 1670 µM)
[13]
  MIC50: 128 µg/mL (≈ 208 µM)
  MIC90: 512 µg/mL (≈ 833 µM)
Clostridium sp.
  MIC50: 256 µg/mL (≈ 416 µM)
  MIC90: 1020 µg/mL (≈ 1670 µM)
Bacteroides nordii
  MIC50: > 1020 µg/mL
  MIC90: > 1020 µg/mL
Thomasclavelia ramosa
  MIC50: 256 µg/mL (≈ 416 µM)
  MIC90: 1020 µg/mL (≈ 1670 µM)
[14]
  MIC50: 128 µg/mL (≈ 208 µM)
  MIC90: 128 µg/mL (≈ 208 µM)
Desulfovibrio vulgaris
  MIC50: 256 µg/mL (≈ 416 µM)
  MIC90: 1020 µg/mL (≈ 1670 µM)
